For the first test, the target named is T1, Osh3 (Aspergillus oryzae, UniProt Q2U562).
T1 construct: gene AO090020000057
T1 sequence (Q2U562 entry or part of it): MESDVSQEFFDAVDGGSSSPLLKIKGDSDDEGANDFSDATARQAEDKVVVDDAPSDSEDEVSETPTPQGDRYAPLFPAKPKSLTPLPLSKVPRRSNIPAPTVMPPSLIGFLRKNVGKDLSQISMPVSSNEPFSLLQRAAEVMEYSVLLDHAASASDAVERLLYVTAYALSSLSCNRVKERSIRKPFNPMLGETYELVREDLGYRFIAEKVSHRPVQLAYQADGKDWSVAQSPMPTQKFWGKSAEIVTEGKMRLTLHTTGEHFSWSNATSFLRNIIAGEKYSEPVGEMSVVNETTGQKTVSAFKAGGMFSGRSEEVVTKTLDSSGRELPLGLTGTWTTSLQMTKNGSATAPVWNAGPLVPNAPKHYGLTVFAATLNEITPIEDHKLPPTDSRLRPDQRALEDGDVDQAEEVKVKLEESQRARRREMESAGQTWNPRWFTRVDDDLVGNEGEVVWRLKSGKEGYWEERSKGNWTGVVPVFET
The test can be described thus: microscale thermophoresis (MST), purified fluorescently labelled Osh3. The test is classed as binding.
Settings: not given
`CC(C)[C@H](C)CC[C@@H](C)[C@H]1CC[C@H]2[C@@H]3CC=C4C[C@@H](O)CC[C@]4(C)[C@H]3CC[C@]12C` [campesterol] gave a Kd of 339 ± 78.1 nM. For the compound `CC[C@H](/C=C/[C@@H](C)[C@H]1CC[C@H]2[C@@H]3CC=C4C[C@@H](O)CC[C@]4(C)[C@H]3CC[C@]12C)C(C)C` [stigmasterol], the affinity, expressed as Kd, was 1 ± 0.8 nM. The same measure, in the same setting: the result for `CC[C@H](CC[C@@H](C)[C@H]1CC[C@H]2[C@@H]3CC=C4C[C@@H](O)CC[C@]4(C)[C@H]3CC[C@]12C)C(C)C` [β-sitosterol] reads 65.8 ± 24.6 nM.

Staying with this test, now noted: read-out: Kd.
Turning to `CC(C)CCC[C@@H](C)[C@H]1CC[C@H]2[C@@H]3C(=O)C=C4C[C@@H](O)CC[C@]4(C)[C@H]3CC[C@]12C` [7-ketocholesterol], the Kd is 1460 nM. The same measure, in the same setting: in the case of `C[C@H](CCCC(C)(C)O)[C@H]1CC[C@H]2[C@@H]3CC=C4C[C@@H](O)CC[C@]4(C)[C@H]3CC[C@]12C` [25-hydroxycholesterol] it was 9.1 ± 2 nM; in that of `CC(C)[C@@H](C)/C=C/[C@@H](C)[C@H]1CC[C@H]2C3=C[C@@H](O)[C@@]4(O)C[C@@H](O)CC[C@]4(C)[C@H]3CC[C@]12C` [cerevisterol], 3.4 ± 1.3 nM. Still for that read-out and setting: the result for `CC(C)CCC[C@@H](C)[C@H]1CC[C@H]2[C@@H]3CC=C4C[C@@H](O)CC[C@]4(C)[C@H]3CC[C@]12C` [cholesterol] reads 333 ± 45.3 nM. Same read-out and setting: in the case of `CC(C)[C@@H](C)/C=C/[C@@H](C)[C@H]1CC[C@@H]2[C@]1(C)CC[C@H]1[C@]23C=C[C@]2(C[C@@H](O)CC[C@]12C)OO3` [ergosterol peroxide] it was 8.1 ± 2.1 nM. Consider `CC(C)[C@@H](C)/C=C/[C@@H](C)[C@H]1CC[C@H]2C3=CC=C4C[C@@H](O)CC[C@]4(C)[C@H]3CC[C@]12C` [ergosterol], for which the dissociation constant (Kd) is 122 ± 24.3 nM.

Source of the values: article PMC9441601, “Aspergillus oryzae accelerates the conversion of ergosterol to ergosterol peroxide by efficiently utilizing cholesterol” (Frontiers in Genetics, 2022).
